{
  "source": "patent US20170275287A1",
  "about": "“NOVEL N2, N4, N7, 6-TETRASUBSTITUTED PTERIDINE-2,4,7-TRIAMINE AND 2, 4, 6, 7-TETRASUBSTITUTED PTERIDINE COMPOUNDS AND METHODS OF SYNTHESIS AND USE THEREOF” (Janus Biotherapeutics, Inc., priority 2014, published 2017)",
  "key": {"CYP2C19": {"target": "T1, CYP2C19 (Homo sapiens, UniProt P33261)", "T1 construct": "CEREP (contract laboratory)", "T1 sequence (P33261 whole entry)": "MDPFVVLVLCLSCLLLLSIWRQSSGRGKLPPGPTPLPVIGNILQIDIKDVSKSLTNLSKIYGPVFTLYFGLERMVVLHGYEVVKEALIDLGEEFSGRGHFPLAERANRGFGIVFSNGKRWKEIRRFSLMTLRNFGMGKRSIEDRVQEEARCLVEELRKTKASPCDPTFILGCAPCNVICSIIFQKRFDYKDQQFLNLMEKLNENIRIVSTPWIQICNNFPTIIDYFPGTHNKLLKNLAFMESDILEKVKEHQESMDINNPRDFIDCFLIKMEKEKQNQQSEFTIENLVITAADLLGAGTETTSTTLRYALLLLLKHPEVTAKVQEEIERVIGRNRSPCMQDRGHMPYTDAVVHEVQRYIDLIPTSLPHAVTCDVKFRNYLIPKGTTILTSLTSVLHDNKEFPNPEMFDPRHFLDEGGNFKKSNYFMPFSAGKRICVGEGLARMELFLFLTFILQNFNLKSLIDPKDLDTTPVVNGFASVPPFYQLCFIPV", "assay": "Cytochrome p450 inhibition (CEREP)", "assay_type": "in vitro ADME", "conditions": "10 μM", "description": "(§1) JB6121 was also tested for CYP inhibition, see Table 6 below. Assays where performed by CEREP, Seattle, Wash., according to Atkinson, A et al., 2005, Drug Metab. Dispos. 33:1637-1647."}, "CYP2C8": {"target": "T2, CYP2C8 (Homo sapiens, UniProt P10632)", "T2 construct": "CEREP (contract laboratory)", "T2 sequence (P10632 whole entry)": "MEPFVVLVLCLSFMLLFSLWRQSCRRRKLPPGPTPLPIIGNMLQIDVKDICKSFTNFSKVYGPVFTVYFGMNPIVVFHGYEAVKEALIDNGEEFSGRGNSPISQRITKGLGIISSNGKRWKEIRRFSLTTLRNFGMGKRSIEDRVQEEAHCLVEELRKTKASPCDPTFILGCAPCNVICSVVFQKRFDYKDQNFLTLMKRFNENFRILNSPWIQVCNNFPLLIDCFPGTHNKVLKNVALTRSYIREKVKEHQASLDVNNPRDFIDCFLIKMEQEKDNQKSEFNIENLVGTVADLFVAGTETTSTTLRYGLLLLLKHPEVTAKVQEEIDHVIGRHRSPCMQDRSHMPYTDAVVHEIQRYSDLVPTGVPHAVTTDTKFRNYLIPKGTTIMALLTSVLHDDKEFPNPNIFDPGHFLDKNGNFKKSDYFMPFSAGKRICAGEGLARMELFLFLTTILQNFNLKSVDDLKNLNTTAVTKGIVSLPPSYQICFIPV", "assay": "Cytochrome p450 inhibition (CEREP)", "assay_type": "in vitro ADME", "conditions": "10 μM", "description": "as §1"}, "[1]": {"assay": "A-B permeability, CaCo-2 cells (CEREP)", "assay_type": "in vitro ADME", "conditions": "human, pH 6.5/7.4", "description": "Preliminary screening measures were conducted by CEREP. All values fall within acceptable limits (Table 5). Solubility assays where performed by CEREP, Seattle, Wash., according to Lipinski, C. A. et al., 1997, Adv. Drug Del. Rev., 46:3-26. Protein binding assays where performed by CEREP, Seattle, Wash., according to Banker, M. J. et al., 2003, J. Pharm. Sci., 92:967-974. Permeability assays where performed by CEREP, Seattle, Wash. according to Hildalgo, I. J., 1998, Gastroenterology, 96:736-749. Metabolic stability assays where performed by CEREP, Seattle, Wash., according to Obach, R. S. et al., 1997, J. Pharmacol. Exp. Ther., 283:46-58. P-glycoprotein inhibition assays where performed by CEREP, Seattle, Wash., according to Polli, J. W. et al., 2001, J. Pharm. Exp. Ther., 299:620-628. Cell viability assays where performed by CEREP, Seattle, Wash., according to Mosmann, T., 1983, J. Immunol. Met. 65:55-62. hERG automated patch clamp assays where performed by CEREP, Seattle, Wash., according to Mathes, C., 2006, Expert Opin. Ther. Targets, 10:230-241."}, "TLR7": {"target": "T3, TLR7 (Mus musculus, UniProt P58681)", "T3 construct": "endogenous in cells", "T3 sequence (P58681 27-1050)": "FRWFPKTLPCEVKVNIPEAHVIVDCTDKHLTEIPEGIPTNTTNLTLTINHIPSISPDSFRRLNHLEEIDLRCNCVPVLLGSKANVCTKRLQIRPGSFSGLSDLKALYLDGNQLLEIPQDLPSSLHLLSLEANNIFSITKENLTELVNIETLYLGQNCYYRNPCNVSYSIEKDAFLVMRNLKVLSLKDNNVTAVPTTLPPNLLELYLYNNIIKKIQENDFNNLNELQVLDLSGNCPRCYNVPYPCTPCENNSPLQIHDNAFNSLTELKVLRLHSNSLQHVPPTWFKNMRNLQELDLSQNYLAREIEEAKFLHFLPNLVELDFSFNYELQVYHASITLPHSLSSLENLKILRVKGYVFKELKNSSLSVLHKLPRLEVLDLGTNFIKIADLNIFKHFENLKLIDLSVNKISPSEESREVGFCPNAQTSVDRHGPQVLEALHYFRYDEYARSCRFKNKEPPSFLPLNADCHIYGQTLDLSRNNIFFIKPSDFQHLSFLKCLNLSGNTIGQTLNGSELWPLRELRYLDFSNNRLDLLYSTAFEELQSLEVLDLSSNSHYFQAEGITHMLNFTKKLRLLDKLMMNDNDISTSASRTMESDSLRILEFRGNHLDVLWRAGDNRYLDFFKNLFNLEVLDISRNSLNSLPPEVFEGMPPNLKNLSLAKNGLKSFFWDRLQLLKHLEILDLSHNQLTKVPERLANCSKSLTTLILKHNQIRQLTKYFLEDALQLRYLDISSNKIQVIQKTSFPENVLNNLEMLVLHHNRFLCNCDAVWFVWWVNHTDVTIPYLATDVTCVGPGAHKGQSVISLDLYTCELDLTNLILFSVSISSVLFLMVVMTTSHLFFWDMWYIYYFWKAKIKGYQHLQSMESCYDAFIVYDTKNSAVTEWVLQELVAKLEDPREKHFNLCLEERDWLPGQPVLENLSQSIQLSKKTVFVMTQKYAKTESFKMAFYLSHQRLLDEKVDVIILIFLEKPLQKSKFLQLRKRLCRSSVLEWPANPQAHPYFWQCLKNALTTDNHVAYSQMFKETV", "assay": "In vivo TLR7 knockdown (JB6011 agonist challenge)", "design": "species or system mice", "conditions": "for ED50: translated for a 25 gram mouse", "description": "Mice were treated with test antagonist at varying doses at T=0 hr. Agonist treatment (CpG-DNA) dosed one hour later, T=1 hr for IP groups and two hours later, T=2 hr for PO groups. Necropsy performed 3 hours post agonist treatment, T=4 hr (IP groups) or T=5 hr (PO groups). Serum cytokines induced by the TLR agonist are measured by ELISA. Groups size per dose, n=3. The mean+/−SD of two independent ELISA's at differing serum dilutions is plotted.\nJB6121 was also tested in vivo for TLR7 knockdown activity utilizing the TLR7 small molecule agonist JB6011 as the agonist challenge. […] This roughly translates to a 3.92 mg/kg IP dose and 11.44 mg/kg PO dose for a 25 gram mouse."}},
  "note": "Read-outs that look alike come from different tables or passages of the source.",
  "data": [
    {"smiles": "CN1CCN(c2nc(NCCN3CCOCC3)c3nc(Cl)c(NCCN4CCOCC4)nc3n2)CC1", "note": "[JB6121, 6-chloro-2-(4-methylpiperazin-1-yl)-N^4,N^7-bis(2-morpholinoethyl)pteridine-4,7-diamine]", "values": [
      {"measurement": "CYP2C19 Mean % Control", "setting": "CYP2C19", "result": 92.9, "unit": "%"},
      {"measurement": "CYP2C8 Mean % Control", "setting": "CYP2C8", "result": 87.7, "unit": "%"},
      {"measurement": "Papp A→B", "setting": "[1]", "result": 1.2, "unit": "×10⁻⁶ cm/s"},
      {"measurement": "ED50", "setting": "TLR7; 4 h, IP, read-out: ID50, TLR7 knockdown, IP dose", "result": "~3.92", "unit": "mg/kg"},
      {"measurement": "ED50", "setting": "TLR7; 5 h, PO, read-out: ID50, TLR7 knockdown, PO dose", "result": "~11.4", "unit": "mg/kg"},
      {"measurement": "ID50, TLR7 knockdown, IP injection", "setting": "TLR7; mice, IP, JB6011 challenge", "result": 98.34, "unit": "μg injection dose"},
      {"measurement": "ID50, TLR7 knockdown, PO gavage", "setting": "TLR7; mice, PO, JB6011 challenge", "result": 286, "unit": "μg delivery dose"}
    ]}
  ]
}
